The source made the active and inactive calls.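 Rule for the calls: active = compounds lowering labeled HDL uptake signal, with AC50 at most ten times the top tested dose; inconclusive = flat partial inhibition between 30 and 70% or unreliable fit; inactive = the rest.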
System: not listed separately
Assay: blockers of fluorescent HDL lipid uptake via SR-BI – ldlA[mSR-BI] CHO cells, dry powder samples, dose response (AID 540354)
Settings: ldlA[mSR-BI] CHO cells, DiI-HDL uptake fluorescence, 3 h; at 35 µM (top of the series)
In the case of `C[C@H](CO)N1C[C@H](C)[C@H](CN(C)S(=O)(=O)c2ccc(F)cc2)Oc2ccc(NC(=O)Cc3ccccc3)cc2C1=O`, the activity change, negative = inhibition was -3.31% (inactive).
For `C[C@H](CO)N1C[C@H](C)[C@H](CN(C)S(=O)(=O)c2ccc(F)cc2)Oc2ccc(NS(C)(=O)=O)cc2C1=O`, the activity change, negative = inhibition was -1.08% (inactive).

System: ldlA[mSR-BI] CHO cells, DiI-HDL uptake fluorescence, 3 h
Assay: as above
Settings: not given
With `C[C@H]1CN([C@@H](C)CO)C(=O)c2cccc(NC(=O)Nc3ccc(F)cc3)c2O[C@@H]1CN(C)Cc1ccc(Cl)c(Cl)c1` the AC50 was 1390 nM.
With `COc1ccc(-c2nnn(CC(=O)N(C3CCCCC3)C(C)C(=O)NC3CCCC3)n2)cc1OC` (stereo not drawn) the AC50 was 28 nM.
With `C[C@@H]1CN([C@H](C)CO)C(=O)c2cc(NC(=O)Cc3cn(C)c4ccccc34)ccc2O[C@H]1CN(C)S(=O)(=O)c1ccccc1` the AC50 was 1290 nM.
`Cc1cc(C(=O)C(C)OC(=O)C2=NNC(=O)CC2)c(C)n1-c1ccc(OC(F)F)cc1` (stereo not drawn) showed an AC50 of 1300 nM.
In the case of `Cc1ccc(-c2nnc(N3CCC(C)CC3)c3ccccc23)cc1C`, the AC50 was 197 nM.
`CC(C)(C)NC(=O)N1CCN(c2ncccc2C(F)(F)F)CC1` showed an AC50 of 292 nM.
`C[C@H]1CN([C@@H](C)CO)C(=O)c2cccc(N(C)C)c2O[C@@H]1CN(C)Cc1ccc(Cl)c(Cl)c1` showed an AC50 of 42400 nM.
In the case of `O=C(Nc1ccc(Cl)cc1C(=O)c1ccc(Cl)cc1)c1cc(Br)ccc1NS(=O)(=O)c1ccc(Cl)cc1`, the AC50 was 494 nM.
With `Nc1ccc(C(=O)Nc2ccc(-c3nc4ccc(NC(=O)c5ccc(N)cc5)cc4[nH]3)cc2)cc1` the AC50 was 813 nM.
`COc1cccc(-c2csc(N3CCN(C(=S)Nc4cccc(Cl)c4)CC3)n2)c1` showed an AC50 of 1890 nM.
Work on `O=C(Nc1cc(Cl)ccc1Cl)c1cc(Cl)ccc1NS(=O)(=O)c1ccc(Cl)c([N+](=O)[O-])c1` yielded an AC50 of 444 nM.
`C[C@H]1CN([C@@H](C)CO)C(=O)c2cccc(NC(=O)Nc3ccccc3)c2O[C@@H]1CN(C)Cc1ccc(Cl)c(Cl)c1` gave an AC50 of 1500 nM.
Compound `CCn1c(COc2c(C)cccc2C)nnc1SCC(=O)N1CCN(c2ccccc2)CC1` has an AC50 of 2790 nM.
Work on `Cc1cc(C)c2c(c1)NC(c1cc3c(cc1Br)OCO3)C1CC=CC21` (stereo not drawn) yielded an AC50 of 505 nM.
With `O=C(Nc1cc(C(F)(F)F)ccc1Cl)c1ccccc1NS(=O)(=O)c1ccc(Cl)cc1` the AC50 was 1380 nM.
`C[C@H]1CN([C@@H](C)CO)C(=O)c2cccc(NC(=O)Nc3ccccc3)c2O[C@@H]1CN(C)C` gave an AC50 of 17300 nM.
Work on `CC(C)NC(=O)Nc1cccc2c1O[C@H](CN(C)Cc1ccc(Cl)c(Cl)c1)[C@@H](C)CN([C@@H](C)CO)C2=O` yielded an AC50 of 1050 nM.
`O=C(Nc1cccc(NC(=O)c2cc([N+](=O)[O-])ccc2Cl)n1)c1cc([N+](=O)[O-])ccc1Cl` showed an AC50 of 1960 nM.
With `C[C@@H]1CN([C@H](C)CO)C(=O)c2cc(NC(=O)Cc3cn(C)c4ccccc34)ccc2O[C@@H]1CN(C)S(=O)(=O)c1ccc(F)cc1` the AC50 was 25700 nM.
With `C[C@@H]1CN([C@H](C)CO)C(=O)c2cc(NC(=O)Cc3cn(C)c4ccccc34)ccc2O[C@H]1CN(C)S(C)(=O)=O` the AC50 was 18200 nM.
Work on `O=C(Nc1ccc(-c2nc3ccc(NC(=O)c4ccccc4[N+](=O)[O-])cc3[nH]2)cc1)c1ccccc1[N+](=O)[O-]` yielded an AC50 of 251 nM.
Compound `C[C@@H]1CN([C@H](C)CO)C(=O)c2cc(NC(=O)Cc3cn(C)c4ccccc34)ccc2O[C@H]1CN(C)C(=O)Nc1ccc(F)cc1` has an AC50 of 3290 nM.
`COC(=O)c1cn(C(=O)c2cccc3ccccc23)c2ccccc12` gave an AC50 of 3610 nM.
`CCOC(=O)N1CCC(NC(=O)c2ccc3c(c2)N(Cc2ccc(F)cc2)CCS3)CC1` gave an AC50 of 32 nM.
With `O=C(Nc1ccc(-c2nc3cc(NC(=O)c4ccccc4Cl)ccc3o2)cc1)c1ccccc1Cl` the AC50 was 16 nM.
`CCc1sc(N2C(=O)C3C4CCC(C4=C(C)C)C3C2=O)nc1-c1ccccc1` (stereo not drawn) showed an AC50 of 754 nM.
`O=C(Nc1ccccc1)c1ccccc1NS(=O)(=O)c1ccc(Cl)cc1` showed an AC50 of 47800 nM.
In the case of `C[C@H](CO)N1C[C@H](C)[C@H](CN(C)S(=O)(=O)c2ccc(F)cc2)Oc2ccc(NC(=O)CCC(F)(F)F)cc2C1=O`, the AC50 was > 35000 nM (inactive).
In the case of `C[C@@H]1CN([C@H](C)CO)C(=O)c2cc(NC(=O)Cc3cn(C)c4ccccc34)ccc2O[C@H]1CN(C)S(=O)(=O)c1ccc(Cl)cc1`, the AC50 was 454 nM.
With `C[C@H]1CN([C@@H](C)CO)C(=O)c2cccc(NS(C)(=O)=O)c2O[C@@H]1CN(C)Cc1ccc(Cl)c(Cl)c1` the AC50 was 19400 nM.
`CCOc1ccc(NC(=O)CN2CCN(CC(=O)Nc3cc(OC)cc(OC)c3)CC2)cc1` showed an AC50 of under 30 nM.
In the case of `O=C(Nc1cc(Cl)ccc1Cl)c1cc(Br)ccc1NS(=O)(=O)c1ccc(Cl)c([N+](=O)[O-])c1`, the AC50 was 426 nM.
`Cc1cc(SC(C)C(=O)Nc2ncc(Cl)cc2Cl)nc2ccccc12` (stereo not drawn) showed an AC50 of 491 nM.
`CCOC(=O)Nc1cccc(NC(=O)c2cc(OC)cc(OC)c2)c1` gave an AC50 of 546 nM.
`Cc1ccccc1NC(=O)NCC1CCN(c2ccc(S(=O)(=O)N3CCOCC3)cc2)CC1` showed an AC50 of 262 nM.
For `CCc1cc2cc3c(cc2nc1SCC(=O)OC(C)C)OCO3`, the AC50 was 79 nM.
Compound `O=C(Nc1ccc(-c2nc3ccc(NC(=O)c4ccccc4)cc3[nH]2)cc1)c1ccccc1` has an AC50 of 526 nM.
Work on `O=C(Nc1ccccc1Cl)c1ccccc1NS(=O)(=O)c1ccccc1` yielded an AC50 of 33300 nM.
In the case of `O=C(Nc1ccc(-c2nc3ccc(NC(=O)c4ccc(Cl)cc4)cc3[nH]2)cc1)c1ccc(Cl)cc1`, the AC50 was under 15 nM.
With `C[C@H](CO)N1C[C@H](C)[C@@H](CN(C)S(=O)(=O)c2ccc(F)cc2)Oc2ccc(NC(=O)Cc3cn(C)c4ccccc34)cc2C1=O` the AC50 was 38500 nM.
In the case of `Cc1ccc2oc(-c3cccc(NC(=O)c4cc(-n5cnnc5)ccc4Cl)c3)nc2c1`, the AC50 was 593 nM.
In the case of `COc1ccc([C@H]2CC(=O)C=C(c3cccc4c3sc3ccccc34)C2)cc1OC`, the AC50 was 208 nM.
Compound `N#Cc1sc2nc(C3CC3)cc(-c3ccc(Cl)cc3)c2c1N` has an AC50 of 1640 nM.
For `CCOc1ccccc1/C=C/c1onc(C)c1S(=O)(=O)N1CCC(C(=O)NC(C)(C)C)CC1`, the AC50 was 77 nM.
In the case of `C[C@@H]1CN([C@H](C)CO)C(=O)c2cc(NC(=O)Cc3cn(C)c4ccccc34)ccc2O[C@H]1CN(C)S(=O)(=O)c1ccc(F)cc1`, the AC50 was 1090 nM.
`CC(OC(=O)c1cccc(NS(C)(=O)=O)c1)C(=O)Nc1ccc(N2CCOCC2)cc1` (stereo not drawn) gave an AC50 of 335 nM.
Compound `C[C@H]1CN([C@@H](C)CO)C(=O)c2cccc(NC(=O)Nc3ccccc3)c2O[C@@H]1CN(C)Cc1ccc(C(F)(F)F)cc1` has an AC50 of 28000 nM.
With `Cc1cc(C)n(CC(=O)NC2CCCc3c2cnn3-c2ccc(C)c(C)c2)n1` (stereo not drawn) the AC50 was 376 nM.
In the case of `CNC[C@@H]1Oc2ccc(NC(=O)Cc3cn(C)c4ccccc34)cc2C(=O)N([C@H](C)CO)C[C@H]1C`, the AC50 was 48000 nM.
Work on `O=C(Nc1ccc(-c2nc3cc(NC(=O)c4ccccc4[N+](=O)[O-])ccc3o2)cc1)c1ccccc1[N+](=O)[O-]` yielded an AC50 of under 15 nM.
`C[C@@H]1CN([C@@H](C)CO)C(=O)c2cc(NC(=O)Cc3cn(C)c4ccccc34)ccc2O[C@H]1CN(C)S(=O)(=O)c1ccc(F)cc1` showed an AC50 of 2190 nM.
With `COc1ccc(OC)c(CCNC(=O)c2ccc3c(c2)N(Cc2ccc(F)cc2)CCS3)c1` the AC50 was 559 nM.
Work on `CC(C)OCCCNC(=O)c1ccc(C2SCC(=O)N2Cc2ccco2)cc1` (stereo not drawn) yielded an AC50 of 1380 nM.
`CCC(=O)N1CCc2cc(-c3csc(NC(=O)c4ccco4)n3)ccc21` gave an AC50 of 17 nM.
Compound `C[C@H]1CN([C@@H](C)CO)C(=O)c2cccc(NC(=O)Nc3ccccc3)c2O[C@@H]1CN(C)Cc1ccccc1` has an AC50 of 13400 nM.
Work on `O=C(Nc1ccc(-c2nc3cc(NC(=O)c4ccc(NC(=O)c5cccc6ccccc56)cc4)ccc3[nH]2)cc1)c1ccc(NC(=O)c2cccc3ccccc23)cc1` yielded an AC50 of under 15 nM.

Reference: PubChem BioAssay AID540354 (Broad Institute, 2011)
